# Measurements reported in ChEMBL document CHEMBL4831513, “Discovery of quinazoline derivatives as a novel class of potent and in vivo efficacious LSD1 inhibitors by drug repurposing” (Eur J Med Chem, 2021).
# pIC50: −log10 of the molar value. Activity calls are given as the source filed them. The calls are words filed in the database; no cut-off is given here.
# Assays:
# [1] = molecular target: T1, Lysine-specific histone demethylase 1A (Homo sapiens, UniProt O60341)
# Description: Inhibition of recombinant full length LSD1 (unknown origin) transfected in Escherichia coli BL21 (DE) using H3K4me2 as substrate by flourescence based analysis
# MGC-803 [2] = test: Antitumor activity against human MGC-803 cells xenografted in nude mouse assessed as chromatin condensation in tumor tissue at 40 to 80 mg/kg/day, iv measured after 21 days by H and E staining based histopathological analysis; assay type: functional, organism-based; details: dose 40-80 mg/kg/day, time 21.0 day
# [3] = Aqueous solubility of the compound in water; assay type: physicochemical
# MAO-A = molecular target: T2, MAO-A (Homo sapiens, UniProt P21397); test: Inhibition of N-terminal FLAG-tagged recombinant human MAO-A expressed in baculovirus-infected Sf9 cells at 5 uM using luciferin derivative as substrate pretreated for 15 mins followed by substrate addition and incubated for 60 mins by luciferase assay relative to control; details: probe luciferin derivative, time 75 min
# T2 sequence (P21397 whole entry): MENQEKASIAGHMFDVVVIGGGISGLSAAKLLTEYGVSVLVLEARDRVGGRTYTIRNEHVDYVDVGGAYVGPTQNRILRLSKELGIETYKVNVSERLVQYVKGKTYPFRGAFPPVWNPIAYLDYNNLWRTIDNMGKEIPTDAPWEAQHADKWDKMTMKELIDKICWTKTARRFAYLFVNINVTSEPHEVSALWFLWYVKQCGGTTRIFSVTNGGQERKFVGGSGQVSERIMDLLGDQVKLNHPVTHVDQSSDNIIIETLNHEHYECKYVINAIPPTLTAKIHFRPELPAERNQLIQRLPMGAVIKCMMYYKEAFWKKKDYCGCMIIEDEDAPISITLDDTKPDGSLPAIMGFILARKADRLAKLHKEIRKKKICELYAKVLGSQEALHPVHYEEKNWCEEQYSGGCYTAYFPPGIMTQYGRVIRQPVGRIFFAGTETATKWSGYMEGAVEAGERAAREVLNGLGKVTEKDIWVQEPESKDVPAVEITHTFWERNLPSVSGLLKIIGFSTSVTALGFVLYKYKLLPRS
# [4] = molecular target: Tyrosine-protein kinase BTK (Homo sapiens) (UniProt Q06187); test: Inhibition of N-terminal GST-fused human full length recombinant BTK expressed in baculovirus-infected Sf21 cells at 5 uM using 5-FAM-EAIYAAPFAKKK as a substrate incubated for 60 mins in the presence of ATP by caliper analysis relative to control
# PC-3 = test: cells; details: Homo sapiens, PC-3, 72 h
# Description: Antiproliferative activity against human PC-3 cells assessed as cell growth inhibition measured after 72 hrs by MTT assay
# MGC-803 [5] = test: Antitumor activity against human MGC-803 cells xenografted in nude mouse assessed as inhibition of tumor growth at 40 to 80 mg/kg/day, iv administered for 21 days; assay type: functional, organism-based; details: dose 40-80 mg/kg/day, time 21.0 day
# NCI-H460 = test: cells; details: Homo sapiens, NCI-H460, 72 h
# Description: Antiproliferative activity against human NCI-H460 cells assessed as cell growth inhibition measured after 72 hrs by MTT assay
# GES1 = test: cells; details: Homo sapiens, GES1, 72 h
# Description: Cytotoxicity against human GES1 cells assessed as cell growth inhibition measured after 72 hrs by MTT assay
# MGC-803 [6] = test: Induction of apoptosis in human MGC-803 cells assessed as viable cells at 5 uM measured after 24 hrs by Annexin V-FITC/PI staining based flow cytometry analysis (Rvb= 89%); assay type: functional; details: read-out: Activity
# NCI-H1650 = test: cells; details: Homo sapiens, NCI-H1650, 72 h
# Description: Antiproliferative activity against human NCI-H1650 cells assessed as cell growth inhibition measured after 72 hrs by MTT assay
# MGC-803 [7] = test: Induction of apoptosis in human MGC-803 cells assessed as early apoptotic cells at 5 uM measured after 24 hrs by Annexin V-FITC/PI staining based flow cytometry analysis (Rvb= 6.1%); assay type: functional
# MGC-803 [8] = test: Antitumor activity against human MGC-803 cells xenografted in nude mouse assessed as reduction in tumor weight at 40 mg/kg/day, iv administered for 21 days relative to control; assay type: functional; details: MGC-803, iv, 504 h, time 21 day
# MGC-803 [9] = test: Antitumor activity against human MGC-803 cells xenografted in nude mouse assessed as pyknosis in tumor tissue at 40 to 80 mg/kg/day, iv measured after 21 days by H and E staining based histopathological analysis; assay type: functional, organism-based; details: dose 40-80 mg/kg/day, time 21.0 day
# BGC-823 = test: cells; details: Homo sapiens, BGC-823, 72 h
# Description: Antiproliferative activity against human BGC-823 cells assessed as cell growth inhibition measured after 72 hrs by MTT assay
# MGC-803 [10] = test: Induction of apoptosis in human MGC-803 cells assessed as necrotic cells at 10 uM measured after 24 hrs by Annexin V-FITC/PI staining based flow cytometry analysis (Rvb= 1%); assay type: functional
# MGC-803 [11] = test: Induction of apoptosis in human MGC-803 cells assessed as necrotic cells at 5 uM measured after 24 hrs by Annexin V-FITC/PI staining based flow cytometry analysis (Rvb= 1%); assay type: functional
# ECa-109 cell line = test: cells; details: Homo sapiens, ECa-109, 72 h
# Description: Antiproliferative activity against human EC109 cells assessed as cell growth inhibition measured after 72 hrs by MTT assay
# [12] = Ocular toxicity in nude mouse xenografted with human MGC-803 cells at 40 to 80 mg/kg/day, iv administered for 21 days; assay type: organism-based; details: in vivo, 504 h, dose 40-80 mg/kg/day, time 21 day
# [13] = Toxicity in nude mouse xenografted with human MGC-803 cells assessed as body weight loss at 40 to 80 mg/kg/day, iv administered for 21 days; assay type: organism-based; details: in vivo, 504 h, dose 40-80 mg/kg/day, time 21 day
# [14] = molecular target: Epidermal growth factor receptor (Homo sapiens, UniProt P00533); test: Inhibition of EGFR (unknown origin)
# MGC-803 [15] = test: Induction of apoptosis in human MGC-803 cells assessed as live cells at 10 uM measured after 24 hrs by Annexin V-FITC/PI staining based flow cytometry analysis (Rvb= 89%); assay type: functional
# MGC-803 [16] = test: Inhibition of cell migration in human MGC-803 cells at 0.5 uM measured after 48 hrs by transwell assay relative to control; assay type: functional
# NCI-H1975 = test: cells; details: Homo sapiens, NCI-H1975, 72 h
# Description: Antiproliferative activity against human NCI-H1975 cells assessed as cell growth inhibition measured after 72 hrs by MTT assay
# MAO-B = molecular target: T3, MAO-B (Homo sapiens, UniProt P27338); test: Inhibition of N-terminal FLAG-tagged recombinant human MAO-B expressed in baculovirus-infected Sf9 cells at 5 uM using luciferin derivative as substrate pretreated for 15 mins followed by substrate addition and incubated for 60 mins by luciferase assay relative to control; details: probe luciferin derivative, time 75 min
# T3 sequence (P27338 whole entry): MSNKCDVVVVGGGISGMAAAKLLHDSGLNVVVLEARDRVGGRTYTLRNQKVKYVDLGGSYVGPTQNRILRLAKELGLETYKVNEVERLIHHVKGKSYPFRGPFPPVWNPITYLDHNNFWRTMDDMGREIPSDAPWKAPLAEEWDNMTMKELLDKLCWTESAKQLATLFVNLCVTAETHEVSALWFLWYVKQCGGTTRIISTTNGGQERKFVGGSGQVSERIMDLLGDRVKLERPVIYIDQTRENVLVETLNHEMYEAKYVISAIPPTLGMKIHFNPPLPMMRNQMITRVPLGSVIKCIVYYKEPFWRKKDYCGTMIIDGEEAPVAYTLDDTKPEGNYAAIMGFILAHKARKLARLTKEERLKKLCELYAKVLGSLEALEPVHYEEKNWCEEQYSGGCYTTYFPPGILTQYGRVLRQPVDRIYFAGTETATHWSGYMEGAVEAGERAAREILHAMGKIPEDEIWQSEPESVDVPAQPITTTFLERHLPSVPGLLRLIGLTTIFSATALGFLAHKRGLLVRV
# MGC-803 [17] = test: Induction of apoptosis in human MGC-803 cells assessed as early apoptotic cells at 10 uM measured after 24 hrs by Annexin V-FITC/PI staining based flow cytometry analysis (Rvb= 6.1%); assay type: functional
# [18] = molecular target: Glycogen synthase kinase-3 beta (Homo sapiens) (UniProt P49841); test: Inhibition of GSK-3beta (unknown origin) at 5 uM relative to control
# MGC-803 [19] = test: Antitumor activity against human MGC-803 cells xenografted in nude mouse assessed as low cell density in tumor tissue at 40 to 80 mg/kg/day, iv measured after 21 days by H and E staining based histopathological analysis; assay type: functional, organism-based; details: dose 40-80 mg/kg/day, time 21.0 day
# MGC-803 [20] = test: Induction of apoptosis in human MGC-803 cells assessed as necrotic cells at 20 uM measured after 24 hrs by Annexin V-FITC/PI staining based flow cytometry analysis (Rvb= 1%); assay type: functional
# MGC-803 [21] = test: Induction of apoptosis in human MGC-803 cells assessed as live cells at 20 uM measured after 24 hrs by Annexin V-FITC/PI staining based flow cytometry analysis (Rvb= 89%); assay type: functional
# MCF7 = test: cells; details: Homo sapiens, MCF7, 72 h
# Description: Antiproliferative activity against human MCF7 cells assessed as cell growth inhibition measured after 72 hrs by MTT assay
# MGC-803 [22] = test: Induction of apoptosis in human MGC-803 cells assessed as late apoptotic cells at 10 uM measured after 24 hrs by Annexin V-FITC/PI staining based flow cytometry analysis (Rvb= 3.9%); assay type: functional
# MGC-803 [23] = test: Inhibition of epithelial mesenchymal transition process in human MGC-803 cells assessed as increase in E-cadherin expression at 0.1 to 0.5 uM measured after 24 hrs western blot analysis; assay type: functional, cell-based; details: dose 0.1-0.5 µM
# Homo sapiens = organism: Homo sapiens; test: Selectivity index, ratio of IC50 for inhibition of EGFR (unknown origin) to IC50 for inhibition of recombinant human full length LSD1 transfected in Escherichia coli BL21 (DE)
# [24] = molecular target: T1, Lysine-specific histone demethylase 1A; test: Inhibition of recombinant full length LSD1 (unknown origin) transfected in Escherichia coli BL21 (DE) at 5 uM using H3K4me2 as a substrate by flourescence based analysis relative to control
# MGC-803 [25] = test: Inhibition of epithelial mesenchymal transition process in human MGC-803 cells assessed as decrease in N-cadherin expression at 0.1 to 0.5 uM measured after 24 hrs western blot analysis; assay type: functional, cell-based; details: dose 0.1-0.5 µM
# MGC-803 [26] = test: Inhibition of clonogenicity in human MGC-803 cells assessed as reduction in colony formation measured after 10 days by crystal violet staining based analysis; assay type: functional, cell-based; details: dose 1-20 µM, time 10.0 day
# MGC-803 [27] = test: Induction of apoptosis in human MGC-803 cells assessed as late apoptotic cells at 20 uM measured after 24 hrs by Annexin V-FITC/PI staining based flow cytometry analysis (Rvb= 3.9%); assay type: functional
# MGC-803 [28] = test: Antitumor activity against human MGC-803 cells xenografted in nude mouse assessed as reduction in tumor weight at 80 mg/kg/day, iv administered for 21 days relative to control; assay type: functional; details: MGC-803, iv, 504 h, time 21 day
# [29] = molecular target: T1, Lysine-specific histone demethylase 1A; test: Inhibition of LSD1 in human MGC-803 cells assessed as increase in H3K4me2 expression measured after 24 hrs by western blot analysis; assay type: cell-based; details: dose 5-20 µM
# [30] = molecular target: Cyclin-dependent kinase 1 (Homo sapiens) (UniProt P06493); test: Inhibition of CDK1 (unknown origin) at 5 uM using 5-FAM-QSPKKG-CONH2 as a substrate incubated for 60 mins in the presence of ATP by caliper analysis relative to control
# HepG2 = test: cells; details: Homo sapiens, HepG2, 72 h
# Description: Antiproliferative activity against human HepG2 cells assessed as cell growth inhibition measured after 72 hrs by MTT assay
# MGC-803 [31] = test: Inhibition of clonogenicity in human MGC-803 cells assessed as reduction in colony formation at 10 uM measured after 10 days by crystal violet staining based analysis relative to control; assay type: functional; details: MGC-803, 240 h, time 10 day
# MGC-803 [32] = test: Induction of apoptosis in human MGC-803 cells assessed as early apoptotic cells at 20 uM measured after 24 hrs by Annexin V-FITC/PI staining based flow cytometry analysis (Rvb= 6.1%); assay type: functional
# MGC-803 [33] = test: cells; details: Homo sapiens, MGC-803, 72 h
# Description: Antiproliferative activity against human MGC-803 cells assessed as cell growth inhibition measured after 72 hrs by MTT assay
# MGC-803 [34] = test: Induction of apoptosis in human MGC-803 cells assessed as late apoptotic cells at 5 uM measured after 24 hrs by Annexin V-FITC/PI staining based flow cytometry analysis (Rvb= 3.9%); assay type: functional
# Glycogen synthase kinase-3 beta (Homo sapiens), sequence (P49841 whole entry, looked up): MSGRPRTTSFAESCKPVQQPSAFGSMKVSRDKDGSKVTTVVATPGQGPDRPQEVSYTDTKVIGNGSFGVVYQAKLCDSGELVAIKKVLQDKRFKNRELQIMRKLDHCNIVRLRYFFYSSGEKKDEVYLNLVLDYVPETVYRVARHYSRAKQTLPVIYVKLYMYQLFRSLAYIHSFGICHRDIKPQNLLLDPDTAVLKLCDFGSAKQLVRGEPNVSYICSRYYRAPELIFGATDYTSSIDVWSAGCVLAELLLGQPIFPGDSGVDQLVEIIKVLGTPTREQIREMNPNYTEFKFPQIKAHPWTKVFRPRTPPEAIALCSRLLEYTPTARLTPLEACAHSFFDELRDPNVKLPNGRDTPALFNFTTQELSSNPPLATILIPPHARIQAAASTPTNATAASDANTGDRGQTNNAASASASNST
# Epidermal growth factor receptor, sequence (P00533 whole entry): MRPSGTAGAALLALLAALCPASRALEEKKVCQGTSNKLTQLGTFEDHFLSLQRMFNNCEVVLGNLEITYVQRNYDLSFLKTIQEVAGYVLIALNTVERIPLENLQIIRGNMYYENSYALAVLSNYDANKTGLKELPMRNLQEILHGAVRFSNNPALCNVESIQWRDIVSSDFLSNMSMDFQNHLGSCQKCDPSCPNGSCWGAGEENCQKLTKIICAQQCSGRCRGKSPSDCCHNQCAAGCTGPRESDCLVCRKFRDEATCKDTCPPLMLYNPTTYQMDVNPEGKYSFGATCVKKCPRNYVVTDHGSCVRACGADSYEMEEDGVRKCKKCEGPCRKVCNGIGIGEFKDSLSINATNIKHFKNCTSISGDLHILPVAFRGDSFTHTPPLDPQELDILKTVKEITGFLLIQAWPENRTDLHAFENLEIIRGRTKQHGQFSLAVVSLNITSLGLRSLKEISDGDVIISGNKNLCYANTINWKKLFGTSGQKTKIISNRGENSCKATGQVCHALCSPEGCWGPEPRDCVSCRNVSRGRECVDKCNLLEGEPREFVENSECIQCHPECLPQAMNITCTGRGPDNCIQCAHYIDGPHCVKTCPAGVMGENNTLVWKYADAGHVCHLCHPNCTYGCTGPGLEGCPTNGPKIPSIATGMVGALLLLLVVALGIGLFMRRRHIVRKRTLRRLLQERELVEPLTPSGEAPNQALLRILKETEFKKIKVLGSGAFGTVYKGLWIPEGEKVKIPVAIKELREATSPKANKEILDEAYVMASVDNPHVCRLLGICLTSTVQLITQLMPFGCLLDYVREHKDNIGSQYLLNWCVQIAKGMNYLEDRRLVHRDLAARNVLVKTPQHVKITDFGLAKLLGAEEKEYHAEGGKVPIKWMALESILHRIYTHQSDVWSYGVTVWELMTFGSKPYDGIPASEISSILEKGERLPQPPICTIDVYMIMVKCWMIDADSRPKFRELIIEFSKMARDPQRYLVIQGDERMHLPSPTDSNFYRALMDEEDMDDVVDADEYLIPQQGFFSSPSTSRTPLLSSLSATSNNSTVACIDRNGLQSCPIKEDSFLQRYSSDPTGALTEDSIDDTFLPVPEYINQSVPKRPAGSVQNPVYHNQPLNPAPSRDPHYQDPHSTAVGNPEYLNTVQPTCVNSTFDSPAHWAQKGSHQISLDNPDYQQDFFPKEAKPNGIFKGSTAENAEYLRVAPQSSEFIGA
# Tyrosine-protein kinase BTK (Homo sapiens), sequence (Q06187 whole entry, the tested form may be a part): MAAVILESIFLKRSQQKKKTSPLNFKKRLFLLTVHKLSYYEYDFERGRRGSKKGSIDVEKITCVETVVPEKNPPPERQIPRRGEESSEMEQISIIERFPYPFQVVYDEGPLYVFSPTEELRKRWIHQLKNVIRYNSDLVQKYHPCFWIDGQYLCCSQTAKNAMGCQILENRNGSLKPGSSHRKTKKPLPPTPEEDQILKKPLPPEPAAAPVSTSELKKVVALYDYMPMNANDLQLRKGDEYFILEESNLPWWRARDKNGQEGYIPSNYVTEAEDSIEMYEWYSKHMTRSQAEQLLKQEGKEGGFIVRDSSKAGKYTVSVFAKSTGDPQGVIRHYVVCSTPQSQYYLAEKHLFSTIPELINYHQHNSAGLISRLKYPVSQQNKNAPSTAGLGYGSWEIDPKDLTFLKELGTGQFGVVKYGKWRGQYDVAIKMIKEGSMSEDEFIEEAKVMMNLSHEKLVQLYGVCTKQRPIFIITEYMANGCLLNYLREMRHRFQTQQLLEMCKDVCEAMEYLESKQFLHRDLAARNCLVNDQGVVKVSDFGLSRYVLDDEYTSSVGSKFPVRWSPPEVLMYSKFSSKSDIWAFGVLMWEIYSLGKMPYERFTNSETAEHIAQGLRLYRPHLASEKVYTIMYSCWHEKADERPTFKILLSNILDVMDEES
# Cyclin-dependent kinase 1 (Homo sapiens), sequence (P06493 whole entry, looked up): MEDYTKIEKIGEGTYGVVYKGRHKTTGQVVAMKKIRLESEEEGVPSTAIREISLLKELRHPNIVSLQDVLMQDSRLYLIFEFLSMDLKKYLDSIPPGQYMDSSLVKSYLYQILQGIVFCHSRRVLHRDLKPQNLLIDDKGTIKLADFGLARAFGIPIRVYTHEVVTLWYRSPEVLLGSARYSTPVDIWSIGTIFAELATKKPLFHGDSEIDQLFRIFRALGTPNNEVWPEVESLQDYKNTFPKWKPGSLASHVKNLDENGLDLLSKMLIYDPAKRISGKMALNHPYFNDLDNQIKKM
smiles,measurement,setting,value
C#Cc1cccc(Nc2ncnc3ccc(Br)cc23)c1,pIC50,[1],< 4.30
COCCOc1cc2ncnc(Sc3nnnn3-c3ccccc3)c2cc1OCCOC,pIC50,[1],< 4.30
C#Cc1cccc(Nc2nc(-c3ccccc3)nc3ccccc23)c1,pIC50,[1],< 4.30
COCCOc1cc2ncnc(Nc3ccc(Br)cc3)c2cc1OCCOC,pIC50,[1],< 4.30
COCCOc1cc2ncnc(N3CCN(c4ccccc4F)CC3)c2cc1OCCOC,pIC50,[1],< 4.30
COCCOc1cc2ncnc(N3CCN(C(C)=O)CC3)c2cc1OCCOC,pIC50,[1],< 4.30
COCCOc1cc2ncnc(Nc3ccccc3)c2cc1OCCOC,pIC50,[1],< 4.30
C#Cc1cccc(Nc2ncnc3cc(OCc4ccccc4)c(OC)cc23)c1,pIC50,[1],< 4.30
COCCOc1cc2ncnc(Sc3nc[nH]n3)c2cc1OCCOC,Activity,MGC-803 [2],Active
same,solubility,[3],> 100 mg/mL
same,"inhibition at 1.25 h, 5 µM",MAO-A,15%
same,inhibition,[4],< 2%
same,pIC50,PC-3,< 4.30
same,Activity,MGC-803 [5],Active
same,pIC50,NCI-H460,4.55
same,pIC50,GES1,< 4.30
same,viability at 5 µM,MGC-803 [6],68.4%
same,pIC50,NCI-H1650,4.76
same,Activity,MGC-803 [7],10.3%
same,inhibition in vivo at 40 mg/kg/day,MGC-803 [8],81.6%
same,Activity,MGC-803 [9],Active
same,pIC50,BGC-823,4.81
same,Activity,MGC-803 [10],2.2%
same,Activity,MGC-803 [11],0.4%
same,pIC50,ECa-109 cell line,5.02
same,Activity,[12],Non-Toxic
same,Activity,[13],Non-Toxic
same,pIC50,[14],5.28
same,Activity,MGC-803 [15],55.1%
same,inhibition at 0.5 µM,MGC-803 [16],70%
same,pIC50,NCI-H1975,4.58
same,"inhibition at 1.25 h, 5 µM",MAO-B,18%
same,Activity,MGC-803 [17],13.3%
same,inhibition,[18],13%
same,Activity,MGC-803 [19],Active
same,Activity,MGC-803 [20],2.3%
same,Activity,MGC-803 [21],20.6%
same,pIC50,MCF7,4.41
same,Activity,MGC-803 [22],29.3%
same,inhibition,MGC-803 [23],Active
same,Ratio IC50,Homo sapiens,7.5
same,inhibition,[24],97%
same,inhibition,MGC-803 [25],Active
same,inhibition,MGC-803 [26],Dose-Dependent Effect
same,Activity,MGC-803 [27],45.8%
same,inhibition in vivo at 80 mg/kg/day,MGC-803 [28],96.1%
same,inhibition,[29],Dose-Dependent Effect
same,inhibition,[30],< 2%
same,pIC50,HepG2,4.79
same,inhibition at 10 µM,MGC-803 [31],> 90%
same,Activity,MGC-803 [32],31.2%
same,pIC50,[1],6.16
same,pIC50,MGC-803 [33],5.04
same,Activity,MGC-803 [34],20.9%
